Data taken from patent publication US4151300A, “Acetohydroxamic acids” (Laboratoire L. Lafon, priority 1976, dated 1979).
“Also recorded” adds a separate entry of the source.

Tests used:
rats [1] = experiment: interaction with apomorphine (stereotype behaviour in rats); format: in vivo
Protocol: (§1) The following text summarises a part of the results of the tests which were carried out with the products according to the invention, these products (unless otherwise stated) being administered intraperitoneally, in suspension in a gum solution (gum arabic), in a volume of 20 ml/kg in the case of mice and of 5 ml/kg in the case of rats.
Batches of six rats are each given a subcutaneous injection of apomorphine (0.5 mg/kg) 30 minutes after the administration of CRL 40,373.
Batches of 6 rats are given a subcutaneous injection of 0.5 mg/kg of apomorphine 30 minutes after the administration of CRL 40,385.

rats [2] = experiment: interaction with amphetamine (stereotypies in rats); format: in vivo
Summary of the method: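 Test products given intraperitoneally as a gum arabic suspension (5 ml/kg in rats). Thirty minutes later, amphetamine 2 mg/kg is injected intraperitoneally; 6 animals per dose.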

mice [3] = experiment: interaction with oxotremorine (temperature, trembling, peripheral cholinergic symptoms); format: in vivo
mice [4] = experiment: traction (motor incoordination); format: in vivo, mice (EVIC CEBA strain); settings: i.p.
mice [5] = experiment: spontaneous motility (actimeter); format: in vivo; settings: i.p.
Summary of the method: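 Compounds given i.p. as a gum arabic suspension at 20 ml/kg. Thirty minutes after dosing, mice (6 per dose, 12 controls) went into an actimeter and motility was recorded for half an hour.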

central nervous system = experiment: psychopharmacological study / behaviour; format: in vivo, mice; settings: mouse, in vivo
rats [6] = experiment: interaction with methylphenidate (stereotypies); format: in vivo; settings: species not given
man = experiment: clinical use in man; format: in vivo
catalepsy = experiment: catalepsy, alone and after a neuroleptic agent; format: in vivo
[7] = toxicity (isolated mice, intraperitoneal); format: in vivo; settings: mouse, in vivo, ip, isolated mice
Protocol: as §1

mice [8] = experiment: toxicity (isolated mice, intraperitoneal); format: in vivo; settings: mice, i.p., at the doses mentioned above (64-1,024 mg/kg)
Protocol: as §1

[9] = toxicity in mice in groups; settings: mouse, in vivo, ip
Protocol: as §1
The LD50 for intraperitoneal administration are as follows: […]

mice [10] = experiment: interaction with reserpine (hypothermia, ptosis); format: in vivo
mice [11] = experiment: four-plate test; format: in vivo, mice (EVIC CEBA strain); settings: mice, i.p.
Protocol: as §1
(§2) The test is carried out on batches of 10 sensitive mice (EVIC CEBA strain), 30 minutes after the administration of CRL 40,373.
(§3) Batches of 10 mice are subjected to the test thirty minutes after having received CRL 40,385.

mice [12] = experiment: electrical shock (convulsing effects); format: in vivo, mice (EVIC CEBA strain); settings: mice, i.p., large dose
Protocol: as §1, §2, §3

mice [13] = experiment: motility reduced by habituation to a cage (residual motility); format: in vivo; settings: i.p., from 32 mg/kg upwards
Summary of the method: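 Mice habituated 18 hours in actimeters received compound intraperitoneally as a gum arabic suspension (20 ml/kg) and were returned to their cages. Motility was recorded for 30 minutes starting half an hour after dosing, with 6 animals per dose and 12 controls.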

mice [14] = experiment: motility reduced by hypoxia treatment (motor recovery); format: in vivo; settings: mice, i.p.
mice [15] = experiment: inter-group aggressiveness (number of fights); format: in vivo; settings: mice, i.p.
Summary of the method: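 Mice were housed either three weeks (CRL 40,373) or 18 days (CRL 40,385, groups of 3) on each side of an opaque cage partition. Fights were counted over 15 min.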

[16] = tested on: catalepsy induced by prochlorperazine; experiment: anticataleptic effect (prochlorperazine-induced catalepsy); format: in vivo; settings: i.p., 256 mg/kg
Protocol: CRL 40,385 or amantadine are administered intraperitoneally 4 hours and 30 minutes after the injection of prochlorperazine (12.5 mg/kg administered intraperitoneally). The catalepsy is assessed every 30 minutes by the plug test (9 cm), the four plug test, the test using parallel bars and the test of crossing the paws on the same side.

rats [17] = experiment: prolonged conditioning to take avoiding action (shuttle box); format: in vivo
From the text: Rats placed in a shuttle box are conditioned to avoid an electric shock by changing sides. The shock is preceded by a sound and light stimulus lasting 3 seconds, which ceases when sides are changed or after 8 seconds. The sequence is repeated every 20 seconds. Animals conditioned for several tens of minutes show a percentage of avoidance which is close to 100%. They continue to be subjected to the stimulus […] and gradually they reach a state in which they are no longer able to change sides during the period of 3 seconds during which no shock is delivered.
As a first approximation, such an effect can be likened to a resumption of conditioned activity in a tired animal.
Rats placed in a "shuttle box" are conditioned to avoid an electric shock lasting 5 seconds, by changing sides. The shock is preceded, for 3 seconds, by a sound and light stimulus which ceases when the rat changes side, or at the end of 8 seconds. The sequence repeats every 20 seconds. […] They continue to be subjected to the stimulus every 20 seconds and gradually they no longer succeed in avoiding the shock.
CRL 40,438 is then administered and any resumption of the avoidance movements is followed until the effect ceases.

[18] = tested on: awake rats with spontaneous hypertension; experiment: hypotensive action in awake rats with spontaneous hypertension; format: in vivo; settings: 100 mg/kg orally
Protocol: In the tests reported below, CRL 40,385 was administered in suspension in a solution of gum arabic, in a volume of 2 ml/kg. The hypotensive action was studied in awake rats with spontaneous hypertension. One batch of 7 rats is given 100 mg/kg of CRL 40,385 orally, followed, 2 hours later, by a fresh dose of 100 mg/kg of this product.

O=C(CN1C(=O)NC(c2ccccc2)(c2ccccc2)C1=O)NO [CRL 40,382, 3-(5,5-Diphenyl-hydantoinyl)-acetohydroxamic acid]
effect of apomorphine (stereotypies) (rats [1]; species not given): does not counteract the effect of apomorphine | amphetamine-induced stereotypies (rats [2]; species not given): antagonism to the stereotypies induced by amphetamine | other effects of amphetamine (hypermotility, group toxicity) (rats [2]; species not given): without altering the other effects of this substance (hypermotility, group toxicity) | effects of oxotremorine (mice [3]; mouse, in vivo): absence of antagonism to the effects of oxotremorine | motor incoordination / incapacity (mice [4]): absence of catalepsy and of motor incapacity | spontaneous motility (mice [5]): moderate hypomotility | psychopharmacological profile / conclusion (central nervous system): antipsychotic activity associated with a moderate sedative effect | effect of methylphenidate (stereotypies) (rats [6]): does not counteract the effect of apomorphine and of methylphenidate | clinical result (man; tablet 250 mg, 2 to 3 tablets per day): used clinically with success as a sedative | cataleptigenic effects of a neuroleptic agent (catalepsy; after a preliminary dose of a neuroleptic agent): boosts the cataleptigenic effects of a preliminary dose of a neuroleptic agent | catalepsy (catalepsy; in vivo): does not in itself cause catalepsy; also recorded: absence of catalepsy

O=C(CC(=O)N(c1ccccc1)c1ccccc1)NO [CRL 40,385, α-(N,N-Diphenylcarbamoyl)-acetohydroxamic acid]
LD50 [7]: 1500 mg/kg | mortality (mice [8]): no mortality whatsoever | LD50 ([9]; mice in groups): 1050 mg/kg | selectivity ratio ([9]; read-out: ratio LD50 (isolated mice)/LD50 (mice in groups)): 1.43 | apomorphine-induced stereotypies (rats [1]; rats, i.p., large dose, apomorphine 0.5 mg/kg s.c.): increase in the duration of the stereotypies induced by apomorphine | amphetamine-induced stereotypies (rats [2]; i.p., 256 mg/kg): lengthening of the duration of the amphetamine-induced stereotypies | reserpine-induced ptosis (mice [10]; i.p.): does not modify the intensity of the palpebral ptosis induced by reserpine | reserpine-induced hypothermia (mice [10]; i.p., 64, 128 and 256 mg/kg, reserpine 2.5 mg/kg i.p.): moderate antagonism towards reserpine-induced hypothermia | peripheral cholinergic symptoms of oxotremorine (mice [3]; mice, i.p.): does not modify the increase in salivation, lachrymation and defaecation | oxotremorine-induced trembling (mice [3]; mice, i.p., 128 mg/kg and above all 512 mg/kg, oxotremorine 0.5 mg/kg i.p.): a reduction in the intensity of the trembling movements produced by oxotremorine | temperature (oxotremorine-induced hypothermia) (mice [3]; mice, i.p., 32 and 128 mg/kg, oxotremorine 0.5 mg/kg i.p.): very partial antagonism against the hypothermia produced by oxotremorine | number of incorrect moves (four-plate test) (mice [11]): does not produce an increase in the number of incorrect moves | motor incoordination / incapacity (mice [4]): does not cause a major motor deficiency | convulsing effects of the electrical shock (mice [12]): counteracts the convulsing effects of the electrical shock | spontaneous motility (mice [5]; mice, 128 and 256 mg/kg): moderate increase in the spontaneous motor activity | spontaneous motility (mice [5]; mice, dose larger than 128 and 256 mg/kg): effect disappears | motility reduced by habituation to the cage (mice [13]): causes a resumption of activity in animals habituated to their cage | minimal effective dose (mice [14]; Mus musculus, ip, read-out: dose at which improvement of motor recovery after hypoxia appears): 32 mg/kg | motor recovery after hypoxia/anoxia by pressure reduction (mice [14]; 32 mg/kg increasing up to 512 mg/kg): causes an improvement in the motor recovery of mice | inter-group aggressiveness (mice [15]): reduces the aggressiveness | intensity of anticataleptic effect compared with amantadine [16]: less intense than that of an 8 times smaller dose of amantadine | cataleptigenic action of prochlorperazine ([16]; prochlorperazine 12.5 mg/kg i.p.): counteracts the cataleptigenic action of prochlorperazine | resumption of avoiding actions (prolonged avoidance test) (rats [17]): causes a resumption of avoiding actions in animals | hypotensive effect [18]: hypotensive effect | arterial pressure (minimum) ([18]; 4 hours after second administration, from 166 mm Hg): 142 mm Hg | pulse rate ([18]; after first administration, from 364): 334 beats/minute | pulse rate change ([18]; after second administration): does not vary | time to minimum arterial pressure ([18]; after second administration): 4 h | reduction of arterial pressure ([18]; after second administration, statistically significant): 13% | average reduction of arterial pressure ([18]; first administration): 10% | reduction of pulse rate ([18]; first administration, statistically significant): 8% | body temperature effect (product alone) (central nervous system): does not have a hypothermic action | psychopharmacological profile / conclusion (central nervous system): the most marked property is the anti-fatigue activity; also recorded: Some of its effects recall an anti-depressant type of activity, and others recall a psychostimulant type of activity; also recorded: psycho-stimulant properties | clinical result (man; tablet or pill 100 mg, 2 to 3 per day): used clinically with success for anti-fatigue treatment
